According to ChEMBL document CHEMBL6134780, “Halogenated retinoid derivatives as dual RARα and RXRα modulators for treating acute promyelocytic leukemia cells” (Eur J Med Chem, 2024):
Activity calls are given as the source filed them. The calls are words filed in the database; no cut-off is given here.

Key:
[1] = target: T1, Retinoic acid receptor alpha (Homo sapiens, UniProt P10276); test: Binding affinity to N-terminal His-tagged human RARalpha LBD extracted from Escherichia coli BL21 (DE3) cells assessed as dissociation constant by ITC analysis
T1 sequence (P10276 whole entry): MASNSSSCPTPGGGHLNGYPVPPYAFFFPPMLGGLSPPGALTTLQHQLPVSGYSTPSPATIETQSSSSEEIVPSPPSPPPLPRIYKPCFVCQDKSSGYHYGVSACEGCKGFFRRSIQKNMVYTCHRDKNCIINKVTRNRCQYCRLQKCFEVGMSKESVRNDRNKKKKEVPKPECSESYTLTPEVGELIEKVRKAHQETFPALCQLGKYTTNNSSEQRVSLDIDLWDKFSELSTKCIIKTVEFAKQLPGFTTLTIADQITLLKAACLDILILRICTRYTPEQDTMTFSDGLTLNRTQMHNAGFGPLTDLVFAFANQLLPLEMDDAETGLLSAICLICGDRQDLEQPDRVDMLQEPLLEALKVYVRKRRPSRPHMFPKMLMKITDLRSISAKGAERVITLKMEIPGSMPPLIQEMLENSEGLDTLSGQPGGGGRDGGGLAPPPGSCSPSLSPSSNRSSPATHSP

[2] = Cell cycle arrest in human ATRA-resistant NB4-LR2 cells assessed as accumulation of cells at S phase at 1 uM incubated for 24 hrs by DAPI staining based flow cytometric analysis (reference value: 21 %); format: functional
[3] = Cell cycle arrest in human ATRA-resistant NB4-LR2 cells assessed as accumulation of cells at sub-G1 phase at 2 uM incubated for 6 hrs by DAPI staining based flow cytometric analysis (reference value: 9 %); format: functional
NB-4 [4] = test: Cell cycle arrest in human NB4 cells assessed as accumulation of cells at G0/G1 phase at 0.5 uM incubated for 24 hrs by DAPI staining based flow cytometric analysis (reference value: 48 %); format: functional
NB-4 [5] = test: Cell cycle arrest in human NB4 cells assessed as accumulation of cells at S phase at 2 uM incubated for 3 hrs by DAPI staining based flow cytometric analysis (reference value: 20 %); format: functional
NB-4 [6] = test: Cell cycle arrest in human NB4 cells assessed as accumulation of cells at G2/M phase at 2 uM incubated for 24 hrs by DAPI staining based flow cytometric analysis (reference value: 23 %); format: functional
NB-4 [7] = test: Cell cycle arrest in human NB4 cells assessed as accumulation of cells at sub-G1 phase at 0.5 uM incubated for 24 hrs by DAPI staining based flow cytometric analysis (reference value: 3 %); format: functional
[8] = Cell cycle arrest in human ATRA-resistant NB4-LR2 cells assessed as accumulation of cells at sub-G1 phase at 2 uM incubated for 3 hrs by DAPI staining based flow cytometric analysis (reference value: 9 %); format: functional
NB-4 [9] = test: Cell cycle arrest in human NB4 cells assessed as accumulation of cells at S phase at 2 uM incubated for 6 hrs by DAPI staining based flow cytometric analysis (reference value: 20 %); format: functional
NB-4 [10] = test: Cell cycle arrest in human NB4 cells transfected with pLVX-shRNA2-negative control assessed as accumulation of cells at sub-G1 phase at 2 uM incubated for 12 hrs by DAPI staining based flow cytometric analysis (reference value: 4 %); format: functional
ATRA-resistant NB4-LR2 [11] = test: Cell cycle arrest in human ATRA-resistant NB4-LR2 cells transfected with pLVX-shRXRalpha assessed as increase in cyclin B1 expression at 1 uM incubated for 12 hrs by Western blot analysis; format: functional, cell-based
[12] = Induction of apoptosis in human ATRA-resistant NB4-LR2 cells assessed as early apoptotic cells at 1 uM incubated for 24 hrs by Annexin V-FITC/PI staining based flow cytometric analysis (reference value: 1.41 %); format: functional
NB-4 [13] = test: Cell cycle arrest in human NB4 cells transfected with pLVX-shRXRalpha plasmid assessed as accumulation of cells at sub-G1 phase at 2 uM incubated for 12 hrs by DAPI staining based flow cytometric analysis (reference value: 10 %); format: functional
[14] = Cell cycle arrest in human ATRA-resistant NB4-LR2 cells assessed as accumulation of cells at sub-G1 phase at 2 uM incubated for 24 hrs by DAPI staining based flow cytometric analysis (reference value: 12 %); format: functional
NB-4 [15] = test: Cell cycle arrest in human NB4 cells transfected with pLVX-shPML-RARalpha plasmid assessed as accumulation of cells at G0/G1 phase at 2 uM incubated for 12 hrs by DAPI staining based flow cytometric analysis (reference value: 38 %); format: functional
ATRA-resistant NB4-LR2 [16] = test: Cell cycle arrest in human ATRA-resistant NB4-LR2 cells transfected with pLVX-shRXRalpha assessed as increase in PLK1 expression at 1 uM incubated for 12 hrs by Western blot analysis; format: functional, cell-based
NB-4 [17] = test: Induction of apoptosis in human NB4 cells assessed as early apoptotic cells at 1 uM incubated for 24 hrs by Annexin V-FITC/PI staining based flow cytometric analysis (reference value: 1.77 %); format: functional
[18] = Cell cycle arrest in human ATRA-resistant NB4-LR2 cells assessed as accumulation of cells at G2/M phase at 2 uM incubated for 3 hrs by DAPI staining based flow cytometric analysis (reference value: 15 %); format: functional
NB-4 [19] = test: Cell cycle arrest in human NB4 cells transfected with pLVX-shRNA2-negative control assessed as accumulation of cells at S phase at 1 uM incubated for 12 hrs by DAPI staining based flow cytometric analysis (reference value: 26 %); format: functional
NB-4 [20] = test: Cell cycle arrest in human NB4 cells assessed as accumulation of cells at G2/M phase at 2 uM incubated for 3 hrs by DAPI staining based flow cytometric analysis (reference value: 21 %); format: functional
[21] = Cell cycle arrest in human ATRA-resistant NB4-LR2 cells assessed as accumulation of cells at G2/M phase at 2 uM incubated for 6 hrs by DAPI staining based flow cytometric analysis (reference value: 15 %); format: functional
NB-4 [22] = test: Cell cycle arrest in human NB4 cells transfected with pLVX-shPML-RARalpha plasmid assessed as accumulation of cells at sub-G1 phase at 1 uM incubated for 12 hrs by DAPI staining based flow cytometric analysis (reference value: 21 %); format: functional
NB-4 [23] = test: Cell cycle arrest in human NB4 cells transfected with pLVX-shRXRalpha plasmid assessed as accumulation of cells at S phase at 1 uM incubated for 12 hrs by DAPI staining based flow cytometric analysis (reference value: 19 %); format: functional
NB-4 [24] = test: Cell cycle arrest in human NB4 cells transfected with pLVX-shRXRalpha plasmid assessed as accumulation of cells at G2/M phase at 1 uM incubated for 12 hrs by DAPI staining based flow cytometric analysis (reference value: 17 %); format: functional
NB-4 [25] = test: Cell cycle arrest in human NB4 cells transfected with pLVX-shPML-RARalpha plasmid assessed as accumulation of cells at G0/G1 phase at 1 uM incubated for 12 hrs by DAPI staining based flow cytometric analysis (reference value: 38 %); format: functional
NB-4 [26] = test: Cell cycle arrest in human NB4 cells assessed as accumulation of cells at sub-G1 phase at 2 uM incubated for 3 hrs by DAPI staining based flow cytometric analysis (reference value: 3 %); format: functional
NB-4 [27] = test: Cell cycle arrest in human NB4 cells assessed as accumulation of cells at G2/M phase at higher concentration by DAPI staining based flow cytometric analysis; format: functional

Cc1cc2c(cc1C(=O)/C(Br)=C/c1ccc(C(=O)O)cc1)C(C)(C)CCC2(C)C gave a Kd [1] of 1080 nM, an Activity [2] of 18% and an Activity [3] of 22%. The Activity (NB-4 [4]) was 59%, the Activity (NB-4 [5]) was 21% and the Activity (NB-4 [6]) was 37%. It also gave an Activity (NB-4 [7]) of 5%, an Activity [8] of 13% and an Activity (NB-4 [9]) of 27%. For the same compound, the Activity (NB-4 [10]) was 7%, the Activity (ATRA-resistant NB4-LR2 [11]) was “inactive” and the Activity [12] was 27.7%. It also gave an Activity (NB-4 [13]) of 12%, an Activity [14] of 21% and an Activity (NB-4 [15]) of 31%. The Activity (ATRA-resistant NB4-LR2 [16]) was “inactive”, the Activity (NB-4 [17]) was 19.18% and the Activity [18] was 33%. The Activity (NB-4 [19]) was 8%, the Activity (NB-4 [20]) was 28% and the Activity [21] was 26%. For the same compound, the Activity (NB-4 [22]) was 24%, the Activity (NB-4 [23]) was 7% and the Activity (NB-4 [24]) was 45%. For the same compound, the Activity (NB-4 [25]) was 27% and the Activity (NB-4 [26]) was 3%.

With Cc1cc2c(cc1C(=O)/C(Br)=C\c1ccc(C(=O)O)cc1)C(C)(C)CCC2(C)C the Activity (NB-4 [27]) was “Active”.
